From patent publication US10168342B2, “Lipid probes and uses thereof” (THE SCRIPPS RESEARCH INSTITUTE, priority 2015, dated 2019)
Like-named read-outs stand apart in the source and are kept apart here.

Experiments:
[1] = target: T1, AEA-DA lipid probe targets in Neuro2a cells (Mus musculus, UniProt Q925I1)
T1 sequence (Q925I1 1-591): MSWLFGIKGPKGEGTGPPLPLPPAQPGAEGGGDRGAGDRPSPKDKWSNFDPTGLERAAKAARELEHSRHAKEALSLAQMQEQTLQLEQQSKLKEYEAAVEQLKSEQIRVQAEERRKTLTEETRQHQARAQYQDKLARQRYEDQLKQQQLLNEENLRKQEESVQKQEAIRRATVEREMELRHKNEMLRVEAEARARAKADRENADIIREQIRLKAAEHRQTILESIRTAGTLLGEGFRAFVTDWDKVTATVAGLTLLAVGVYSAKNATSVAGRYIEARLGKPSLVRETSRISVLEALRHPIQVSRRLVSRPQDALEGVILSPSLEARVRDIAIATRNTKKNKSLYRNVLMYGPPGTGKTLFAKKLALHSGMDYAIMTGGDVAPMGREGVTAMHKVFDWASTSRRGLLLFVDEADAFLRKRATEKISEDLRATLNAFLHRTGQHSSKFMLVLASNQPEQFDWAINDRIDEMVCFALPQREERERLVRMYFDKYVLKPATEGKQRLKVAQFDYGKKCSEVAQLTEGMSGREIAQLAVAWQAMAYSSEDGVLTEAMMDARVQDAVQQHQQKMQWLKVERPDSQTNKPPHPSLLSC

[2] = target: T2, AEA-DA lipid probe targets in Neuro2a cells (Mus musculus, UniProt Q9D938)
T2 sequence (Q9D938 97-188): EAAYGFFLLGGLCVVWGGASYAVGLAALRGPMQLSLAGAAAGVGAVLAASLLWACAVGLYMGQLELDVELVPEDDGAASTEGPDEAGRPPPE

[3] = target: T3, AEA-DA lipid probe targets in Neuro2a cells (Mus musculus, UniProt Q9R0P6); settings: for SILAC ratio, SEC11A (P67812): Neuro2a cells, AEA-DA probe
T3 sequence (Q9R0P6 1-179): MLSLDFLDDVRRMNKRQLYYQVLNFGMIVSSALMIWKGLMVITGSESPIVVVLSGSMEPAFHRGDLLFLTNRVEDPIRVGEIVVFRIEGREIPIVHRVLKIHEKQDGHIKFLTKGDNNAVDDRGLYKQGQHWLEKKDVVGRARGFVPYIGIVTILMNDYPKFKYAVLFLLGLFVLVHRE

[4] = target: T4, AEA-DA lipid probe targets in Neuro2a cells (Mus musculus, UniProt P22315)
T4 sequence (P22315 54-422): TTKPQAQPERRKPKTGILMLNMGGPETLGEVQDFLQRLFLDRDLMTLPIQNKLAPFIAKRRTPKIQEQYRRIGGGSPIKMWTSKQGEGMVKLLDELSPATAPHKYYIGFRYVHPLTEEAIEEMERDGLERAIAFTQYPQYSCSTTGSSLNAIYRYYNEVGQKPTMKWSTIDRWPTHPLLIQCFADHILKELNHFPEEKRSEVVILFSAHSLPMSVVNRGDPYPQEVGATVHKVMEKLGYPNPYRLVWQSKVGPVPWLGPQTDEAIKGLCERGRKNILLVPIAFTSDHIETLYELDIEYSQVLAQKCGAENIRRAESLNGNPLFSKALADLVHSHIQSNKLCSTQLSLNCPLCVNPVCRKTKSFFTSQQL

[5] = target: T5, AEA-DA lipid probe targets in Neuro2a cells (Mus musculus, UniProt Q61425)
T5 sequence (Q61425 13-314): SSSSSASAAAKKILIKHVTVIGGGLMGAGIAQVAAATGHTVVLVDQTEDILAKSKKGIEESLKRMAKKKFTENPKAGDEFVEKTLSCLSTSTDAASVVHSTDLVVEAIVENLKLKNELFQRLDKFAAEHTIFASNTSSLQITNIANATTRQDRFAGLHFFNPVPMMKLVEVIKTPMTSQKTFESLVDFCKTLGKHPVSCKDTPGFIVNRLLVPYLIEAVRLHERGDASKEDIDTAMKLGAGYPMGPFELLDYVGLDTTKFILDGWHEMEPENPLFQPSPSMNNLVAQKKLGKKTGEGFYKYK

[6] = target: AEA-DA lipid probe targets in Neuro2a cells (Mus musculus, UniProt P20029)
Sequence of AEA-DA lipid probe targets in Neuro2a cells (Mus musculus, UniProt P20029) (P20029 20-655): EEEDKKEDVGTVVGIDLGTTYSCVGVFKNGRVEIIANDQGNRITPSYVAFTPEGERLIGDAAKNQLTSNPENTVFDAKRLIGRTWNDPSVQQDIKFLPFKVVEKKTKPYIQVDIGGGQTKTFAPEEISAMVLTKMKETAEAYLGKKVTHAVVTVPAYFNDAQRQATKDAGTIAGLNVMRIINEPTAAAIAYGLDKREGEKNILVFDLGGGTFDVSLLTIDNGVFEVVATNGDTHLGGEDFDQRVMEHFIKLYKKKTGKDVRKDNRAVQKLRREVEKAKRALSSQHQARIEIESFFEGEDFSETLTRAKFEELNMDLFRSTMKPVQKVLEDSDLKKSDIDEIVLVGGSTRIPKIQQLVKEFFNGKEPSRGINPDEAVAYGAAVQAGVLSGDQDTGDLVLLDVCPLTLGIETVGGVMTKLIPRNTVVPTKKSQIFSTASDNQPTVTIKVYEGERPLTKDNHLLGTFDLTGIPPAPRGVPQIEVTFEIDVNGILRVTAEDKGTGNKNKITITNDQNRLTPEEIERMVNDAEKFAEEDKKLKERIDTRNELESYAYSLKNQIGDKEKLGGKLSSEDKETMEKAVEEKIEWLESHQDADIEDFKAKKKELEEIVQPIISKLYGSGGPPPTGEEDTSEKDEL

| SMILES | SILAC ratio Atad3 ([1]; competitor 25 μM) | SILAC ratio, Tmem160 ([2]; competitor 25 μM) | SILAC ratio, SEC11A (P67812) ([3]; competitor 25 μM) | SILAC ratio, Sec11a ([3]; competitor 25 μM) | SILAC ratio, Fech ([4]; competitor 25 μM) | SILAC ratio Hadh ([5]; competitor 25 μM) | SILAC ratio Hspa5 ([6]; competitor 25 μM) | also measured |
| --- | --- | --- | --- | --- | --- | --- | --- | --- |
| C=CCN(C)CCCCCCOc1ccc(C(=O)c2ccc(Br)cc2)c(F)c1 [Ro 48-8071, reference compound] | 1.0 | 1.2 | 1.6 | 1.6 | 1.4 | 0.8 | 0.9 |  |
| CN1CCN(C(=O)c2[nH]c3ccc([N+](=O)[O-])cc3c2-c2ccccc2)CC1 [MJN228, (4-Methylpiperazin-1-yl)(5-nitro-3-phenyl-1H-indol-2-yl)methanone] | 1.4 | 1.5 | 1.6 | 1.6 | 2.4 | 1.3 | 1.4 | SILAC ratio Atad3 ([1]; competitor 10 μM): 1.1; SILAC ratio Atad3 ([1]; competitor 50 μM): 1.3; SILAC ratio Atad3 ([1]; competitor 100 μM): 1.4; SILAC ratio, Tmem160 ([2]; competitor 10 μM): 1.2; SILAC ratio, Tmem160 ([2]; competitor 100 μM): 3.5; SILAC ratio, Sec11a ([3]; competitor 10 μM): 1.2; SILAC ratio, Sec11a ([3]; competitor 50 μM): 1.7; SILAC ratio, Sec11a ([3]; competitor 100 μM): 2.3; SILAC ratio, Fech ([4]; competitor 10 μM): 1.0; SILAC ratio, Fech ([4]; competitor 50 μM): 3.0; SILAC ratio, Fech ([4]; competitor 100 μM): 2.9; SILAC ratio Hadh ([5]; competitor 10 μM): 1.3; SILAC ratio Hadh ([5]; competitor 50 μM): 1.1; SILAC ratio Hadh ([5]; competitor 100 μM): 1.3; SILAC ratio Hspa5 ([6]; competitor 10 μM): 1.4; SILAC ratio Hspa5 ([6]; competitor 50 μM): 1.4; SILAC ratio Hspa5 ([6]; competitor 100 μM): 1.5 |
| CCCCC/C=C\C/C=C\C/C=C\C/C=C\CCCC(=O)NCCO [AEA, anandamide, reference compound] |  |  |  |  |  |  |  | SILAC ratio Atad3 ([1]; competitor 200 μM): 1.5; SILAC ratio, SEC11A (P67812) ([3]; competitor 200 μM): 1.9; SILAC ratio, Sec11a ([3]; competitor 200 μM): 1.9; SILAC ratio, Fech ([4]; competitor 200 μM): 1.3; SILAC ratio Hadh ([5]; competitor 200 μM): 1.2; SILAC ratio Hspa5 ([6]; competitor 200 μM): 1.2 |
| CN1CCN(C(=O)c2c(-c3ccccc3)c3cc([N+](=O)[O-])ccc3n2C)CC1 [KML110, (1-Methyl-5-nitro-3-phenyl-1H-indol-2-yl)(4-methylpiperazin-1-yl)methanone] | 1.2 | 1.3 |  | 1.6 | 2.2 | 1.2 | 1.4 |  |
| O=C(/C=C/c1cccnc1)NCCCCC1CCN(C(=O)c2ccccc2)CC1 [FK-866, reference compound] | 1.2 | 1.2 | 1.1 | 1.1 | 20.0 | 1.2 | 1.2 |  |
